The values that follow come from patent US7767803B2, “Stabilized aptamers to PSMA and their use as prostate cancer therapeutics” (Archemix Corp., priority 2002, dated 2010).

Entries after “also recorded” stand apart in the source; their conditions may differ. [invdT] = inverted (3'-3') thymidine; d = 2'-deoxy (DNA); m = 2'-O-methyl; f = 2'-fluoro

In data set [1] the test system is metastatic, androgen independent prostate cancer. The note with it: docetaxel in combination with prednisone, given every three weeks; control mitoxantrone and prednisone; cited from earlier work.
A further data set concerns the target PSMA NAALADase activity (Homo sapiens, UniProt Q04609). The data set can be described thus: NAALADase inhibition assay. It counts as biochemical. Conditions: relative to parent aptamer. How it is done:
These point mutant constructs were assessed for activity in terms of inhibition of PSMA NAALADase activity. The NAALADase assay was performed in 96 well format. PSMA aptamers were serially diluted in 1× reaction buffer (40 mM Tris-HCl, pH 7.4, 0.1 mM ZnSO4, 0.1 mg/mL BSA) in a standard 96 well plate to be tested at a final concentration range from 30 pM to 1 μM. The enzyme was prepared by diluting 30 μL of 100 nM PSMA into 8 mL of reaction buffer, and kept cool on ice. The substrate was prepared by adding 19 μl of NAAG [Glutamate-3,4-^3H], 50.8 Ci/mmol, 19.7 μM (Perkin-Elmer, Wellesley, Mass., NET1082) into 2.2 mL of reaction buffer.
Following preparation of all reagents, 4 μl of each serially diluted aptamer was added to a separate 96 well plate (the reaction plate). 76 μl of diluted enzyme was added to the corresponding wells containing aptamer. 80 μl of reaction buffer was added to one column of wells to serve as a background control. The diluted substrate and reaction plate were then moved to a room at 37° C. and allowed to equilibrate for 10 minutes. […]
To separate the cleavage products, […] and Glutamate, from the substrate, an AG 1-×8, 200-400 mesh, formate resin (BioRad, Hercules, Calif., # 140-1454) was used. […] The plate was sealed and read using a Packard Topcount Microplate Scintillation Counter. […]

The next data set deals with LNCaP cells (PSMA+). The data set can be described thus: LNCaP FACS assay with fluorescein-labeled aptamers. It counts as cell-based. From the text: The parent A9 aptamer sequence (SEQ ID NO 168) is predicted by the MFOLD algorithm implemented in the RNAStructure program v. 4.11 to fold into a partially mismatched hairpin that encompasses almost the entire molecule. A series of truncated constructs were designed, in which self-pairing nucleotides from the 5′- and 3′-ends were simultaneously removed, chemically synthesized using conventional solid-phase phosphoramidite-based synthesis, and tested. In the design of some of the truncated A9 aptamers, see e.g. ARC591, additional bases were added to the 3′ and 5′ ends of the truncate, where the bases added to the 5′ end were capable of forming Watson-Crick base pairs with those added to the 3′ end thereby increasing the length of stem structure. Truncated aptamers were 5′-labeled with fluorescein and tested for binding in to LNCaP cells (PSMA+) in the FACS assay described below. PC-3 cells (PSMA−) were used as a control cell line. The sequences of the truncated A9 aptamers designed are listed below in Table 6 below.
To accomplish 5′-fluorescein labeling, aptamers were synthesized with a 5′-amine and then modified post-solid phase synthesis. The required aptamer was dissolved to a concentration of ˜10-50 mg/mL in 25 mM phosphate buffer, pH 7.4. The small molecule, NHS ester of fluorescein, was dissolved to a concentration of 10 mg/mL in DMSO. 1.5 Molar equivalents were added to the aptamer and the solution vortexed for ˜15 seconds. The reaction was allowed to proceed in the dark at room temperature for 1 hour and then a 5 μL aliquot was withdrawn, diluted with water and analyzed by HPLC. Additional equivalents of the small molecule were added until the reaction was complete by HPLC. Excess small molecules were removed by gel filtration.
To prepare aptamers for the FACS assay, PSMA aptamers were serially diluted (0-1 uM) in FACS buffer (1×DPBS w/Ca^++/Mg^++ (Gibco, Carlsbad, Calif.) supplemented with 10 mg/mL salmon sperm DNA & 0.2% Na Azide), in a V-bottom 96 well plate, at the concentrations to be tested. LNCaP and PC-3 cells (ATCC, Manassas, Va.) were harvested with trypsin, and 200,000 cells/well were counted, washed once with 1×DPBS (with Ca^++ and Mg^++) and resuspended in 200 μl of FACS Buffer. The 200 μl of cells in FACS buffer were added to individual wells of a new 96 well plate, pelleted by centrifugation (1300 rpm for 5 minutes), and resuspended in 100 μl of the appropriate concentration of diluted aptamer. FACS buffer, c-PSMA antibody (3C6) (Northwest Biotherapeutics, Bothell, Wash., Cat #: 60-5002) and an irrelevant fluorescein isothiocyanate (“FITC”) mouse IgG1 isotype control antibody (BD Pharmingen, San Diego, Calif., Cat#: 554679) were used as controls. The wells of aptamer/cell mixture were incubated at room temperature for 20-30 minutes. […]
For orientation: Flow cytometry measures light scatter and fluorescence of single cells or particles in a stream.

Another data set deals with T1, ECD PSMA (Homo sapiens, UniProt Q04609).
T1 construct: N-terminal linker […]; made in house; host or cells: 293 Freestyle cells, pSecTag2B vector
T1 sequence (Q04609 with tags, fused parts or gaps): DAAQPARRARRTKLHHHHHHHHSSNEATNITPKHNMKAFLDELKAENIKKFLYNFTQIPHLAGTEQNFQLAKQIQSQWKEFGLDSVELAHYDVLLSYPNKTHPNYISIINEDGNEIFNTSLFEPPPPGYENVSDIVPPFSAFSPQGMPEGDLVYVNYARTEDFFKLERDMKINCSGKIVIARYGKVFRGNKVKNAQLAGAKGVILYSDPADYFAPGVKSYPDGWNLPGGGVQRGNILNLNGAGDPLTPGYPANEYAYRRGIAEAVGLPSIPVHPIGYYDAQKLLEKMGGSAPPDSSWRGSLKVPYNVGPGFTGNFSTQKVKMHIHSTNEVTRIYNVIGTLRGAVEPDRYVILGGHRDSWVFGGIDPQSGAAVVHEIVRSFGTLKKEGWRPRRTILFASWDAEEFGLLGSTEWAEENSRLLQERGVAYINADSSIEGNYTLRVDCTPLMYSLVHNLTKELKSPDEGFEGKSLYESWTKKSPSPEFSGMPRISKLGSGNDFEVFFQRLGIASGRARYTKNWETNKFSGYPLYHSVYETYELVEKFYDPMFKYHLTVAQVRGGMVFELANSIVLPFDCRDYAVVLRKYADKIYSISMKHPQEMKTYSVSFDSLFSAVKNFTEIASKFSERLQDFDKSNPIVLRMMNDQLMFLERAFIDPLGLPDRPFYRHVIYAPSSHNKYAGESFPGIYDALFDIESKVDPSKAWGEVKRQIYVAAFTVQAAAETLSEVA
The data set can be described thus: Dot blot binding assay (nitrocellulose filtration). How it is done: The binding reactions are then analyzed by nitrocellulose filtration using a Minifold I dot-blot, 96-well vacuum filtration manifold (Schleicher & Schuell, Keene, N.H.) (dot blot binding assay). A three-layer filtration medium is used, consisting (from top to bottom) of Protran nitrocellolose (Schleicher & Schuell), Hybond-P nylon (Amersham Biosciences, Piscataway, N.J.) and GB002 gel blot paper (Schleicher & Schuell). The nitrocellulose layer, which selectively binds protein over nucleic acid, preferentially retains the anti-PSMA aptamer in complex with a protein ligand, while non-complexed anti-PSMA aptamer passes through the nitrocellulose and adhered to the nylon (the gel blot paper is included as a supporting medium for the other filters). Following filtration, the filter layers are separated, dried and exposed on a phosphor screen (Amersham Biosciences) and quantified using a Storm 860 Phosphorimager® blot imaging system (Amersham Biosciences) and KD values are calculated by fitting the equation y=(max/(1+K/protein))+yint.
Dot Blot Binding Analysis. […]
In order to identify the core structural elements required for ARC955 binding to PSMA, the 3′-boundaries of the clone was determined through alkaline hydrolysis. […] The KD and maximum % bound for the 3 minimized constructs with the overall highest PSMA affinity, as determined by a dot blot binding assay, are listed in Table 4. […]

PSMA NAALADase activity, sequence (Q04609 with tags, fused parts or gaps limits assumed): as the sequence (Q04609 with tags, fused parts or gaps) above

As for `CC(=O)O[C@@]12CO[C@@H]1C[C@H](O)[C@@]1(C)C(=O)[C@H](O)C3=C(C)[C@@H](OC(=O)[C@H](O)[C@@H](NC(=O)OC(C)(C)C)c4ccccc4)C[C@@](O)([C@@H](OC(=O)c4ccccc4)[C@H]21)C3(C)C` [Taxotere, docetaxel], the “survival advantage over the control group” value in data set [1] is “approximately 2.5 months”.
Regarding “mCmGmGmAfCfCmGdAdAfCmAmAmGmGmCfCfU-s-dGmAfCfUfUfCfUmAfUmAfCfUdAmAmGmCmCmUmAfCmGfUmUmCmCmG-3T (CGGACCGAACAAGGCCUGACUUCUAUACUAAGCCUACGUUCCG; sugars from the 5' end mmmmffmddfmmmmmffdmfffffmfmffdmmmmmmfmfmmmm, [invdT] at 3' end, backbone not given here; internal -s- element between two units) [ARC1725]”, the “NAALADase inhibition activity (in words)” value in the data set with PSMA NAALADase activity is reported as “retained full activity”.
Turning to “GGAGGACCGAAAAAGACCUGACUUCUAUACUAAGUCUACGUUCCUCCA (2'-fluoro pyrimidines, further chemistry not given here) [ARC591, 48-nt minimer of A9, 2′-OH purines, 2′-fluoro pyrimidines]”, the “binding to LNCaP (PSMA+) cells by FACS (in words)” value in the data set on LNCaP cells (PSMA+) was “retained full functional activity”. Also, the “NAALADase inhibition activity (in words)” value with PSMA NAALADase activity is given as “retained full functional activity”.
For “CUACUACACAUGGGUCGGGUGAGUGGCAAAGGAAUAGUAG (2'-O-methyl at ACU, RNA at G, backbone not given here) [ARC725]”, the “PSMA binding (in words)” value with ECD PSMA is “no intrinsic PSMA binding; also recorded: not to exhibit PSMA binding”.
For the compound “AGAGGAGAGAACGUUCUACUAUGGGUGGCUGGGAGGGG (2'-O-methyl at ACU, RNA at G, backbone not given here) [ARC1091, rGmH minimer of ARC955]”, in the data set with ECD PSMA, the “PSMA binding (in words)” value is reported as “maintains the full binding capacity”.
